Tests used:
Immature rats = assay: In vivo uterotropic activity; settings: for Uterine Weight (mg) ± SD: n=6/group
[1] = molecular target: human estrogen receptor (hER-α) (Homo sapiens, UniProt P03372); assay: Estrogen receptor binding, whole cell test procedure; settings: comparison values for known estrogens
Chain of human estrogen receptor (hER-α) (P03372 whole entry): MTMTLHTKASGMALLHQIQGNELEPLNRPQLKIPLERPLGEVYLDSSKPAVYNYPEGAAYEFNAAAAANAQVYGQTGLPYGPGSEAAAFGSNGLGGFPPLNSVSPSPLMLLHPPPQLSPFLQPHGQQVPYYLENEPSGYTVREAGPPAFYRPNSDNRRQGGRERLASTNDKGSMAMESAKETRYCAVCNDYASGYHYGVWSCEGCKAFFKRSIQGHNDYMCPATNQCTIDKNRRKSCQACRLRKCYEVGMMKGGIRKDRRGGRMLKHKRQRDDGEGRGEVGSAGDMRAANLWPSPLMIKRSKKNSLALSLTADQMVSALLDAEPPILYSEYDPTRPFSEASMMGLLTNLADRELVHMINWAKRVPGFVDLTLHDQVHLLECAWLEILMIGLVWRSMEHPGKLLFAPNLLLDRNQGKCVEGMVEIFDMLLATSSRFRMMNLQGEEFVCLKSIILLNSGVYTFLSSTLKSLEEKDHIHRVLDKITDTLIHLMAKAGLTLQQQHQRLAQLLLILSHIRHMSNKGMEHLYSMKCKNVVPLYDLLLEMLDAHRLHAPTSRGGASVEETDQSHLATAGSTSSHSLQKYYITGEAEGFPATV

Structure (SMILES) | Uterine Weight (mg) ± SD (Immature rats; 1 µg, three days S.C.) [mg] | Uterine Weight (mg) ± SD (Immature rats; 10 µg, three days S.C.) [mg] | Uterine Weight (mg) ± SD (Immature rats; 100 µg, three days S.C.) [mg] | Uterine Weight (mg) ± SD (Immature rats; 500 µg, three days S.C.) [mg] | also measured
CC12CCC3C(=CCC4=C3CCC(O)C4)C1CCC2=O (stereo not drawn) [5A, estra-5(10),7-dien-3α-ol-17-one] | 28.7 ± 2.7 | 33.3 ± 4.4 | 66.5 ± 4.7 | 78.9 ± 13.6 | estimated EC50 (Immature rats; uterine stimulation, in words relative to 5B): somewhat lower
CC12CCC3C(=CCC4=C3CCC(O)C4)C1CCC2=O (stereo not drawn) [5B, estra-5(10),7-dien-3β-ol-17-one] | 31.7 ± 6.6 | 43.5 ± 6.9 | 79.7 ± 5.8 | 82.6 ± 8.6 | Uterine Weight (mg) ± SD (Immature rats; 0.1 µg, three days S.C.): 34.1 ± 6.2 mg
C#C[C@]1(O)CC[C@H]2[C@@H]3CCc4cc(O)ccc4[C@H]3CC[C@@]21C [Ethinyl Estradiol, reference compound] |  |  |  |  | Uterine Weight (mg) ± SD (Immature rats; 0.5 µg, three days): 101.2 ± 2.8 mg
C[C@]12CCc3c(ccc4cc(O)ccc34)[C@@H]1CCC2=O [equilenen] |  |  |  |  | Ki [1]: 375 nM
C[C@]12CC[C@@H]3c4ccc(O)cc4CC[C@H]3[C@@H]1CCC2=O [estrone, reference compound] |  |  |  |  | EC50 (Immature rats; estimated in similar test procedures): 0.2 mg/kg

Reference: patent EP0973790B1, “ESTRA-5(10),7-DIENES WITH ESTROGENIC ACTIVITY” (Wyeth, priority 1997, dated 1998)
